The values that follow are results of earlier work, collected in patent US20180185375A1, “COMPOSITIONS AND METHODS FOR THE TREATMENT OF SUBSTANCE USE DISORDERS, ADDICTION, AND PSYCHIATRIC DISORDERS” (EMBERA NEUROTHERAPEUTICS, INC., priority 2015, published 2018).

One data set deals with adrenal gland. As to conditions: in vivo.
The test system of data set [1] is cocaine self-administration in rats.
The test system of the next data set is cortisol levels. As to conditions: healthy subjects.
Setting [2] is: 12.5 mg/kg metyrapone tested alone, rats.

As for `Clc1ccc(C(c2ccccc2Cl)C(Cl)Cl)cc1` (stereo not drawn) [Mitotane], the “doses at which it is an adrenolytic agent” value with adrenal gland was “greater than 4 g per day”.

In the case of `Cc1nnc2n1-c1ccc(Cl)cc1C(c1ccccc1)=NC2` [alprazolam], the “effect of the dose alone on cocaine self-administration” value in data set [1] (alprazolam 1.0 mg/kg, ip, alone) is “ineffective”.

As to `CCOC(=O)c1cncn1[C@H](C)c1ccccc1` [etomidate], the “time after which infusion resulted in significant suppression of cortisol levels” value in the data set with cortisol levels was 5 h. Further, in the data set on cortisol levels (infusion), the “time of maximal effects on cortisol levels” value was 11 h.

With `CC(C)(C(=O)c1cccnc1)c1cccnc1` [metyrapone], in data set [1] (setting [2]), the “effect on cocaine-maintained responding” value was “no effect” and the “effect on food-maintained responding” value is on record as “no effect”.
